Source: patent US20160139118A1, “NOVEL ASSAY” (GLAXOSMITHKLINE INTELLECTUAL PROPERTY (NO.2) LIMITED, priority 2013, published 2016)
Values belong to the molecule of their own block, whether it stands above or below them.

Columns and labels:
CFI [1] = target: T1, CFI (Homo sapiens, UniProt P05156); assay: Effect of treating agents on CFI bioactivity in cofactor assay; type: biochemical; settings: 1 μg/mL CFI, 10 μM BAM, 37° C. 40 min with agent; then 80 μg/mL CFH and C3b
T1 construct: purified serum CFI protein which has been successfully used in cofactor assays; purchased Complement Technology Inc (Tyler, Tex.); host or cells: human serum
T1 sequence (P05156 19-335 limits assumed): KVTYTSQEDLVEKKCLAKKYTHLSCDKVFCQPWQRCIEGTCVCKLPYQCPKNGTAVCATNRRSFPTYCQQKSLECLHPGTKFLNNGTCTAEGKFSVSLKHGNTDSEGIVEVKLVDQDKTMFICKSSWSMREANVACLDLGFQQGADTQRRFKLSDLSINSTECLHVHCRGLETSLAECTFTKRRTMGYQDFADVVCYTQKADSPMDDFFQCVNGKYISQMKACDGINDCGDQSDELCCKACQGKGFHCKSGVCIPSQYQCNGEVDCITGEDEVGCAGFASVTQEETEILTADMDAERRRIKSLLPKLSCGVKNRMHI
T1 sequence (P05156 340-583 limits assumed): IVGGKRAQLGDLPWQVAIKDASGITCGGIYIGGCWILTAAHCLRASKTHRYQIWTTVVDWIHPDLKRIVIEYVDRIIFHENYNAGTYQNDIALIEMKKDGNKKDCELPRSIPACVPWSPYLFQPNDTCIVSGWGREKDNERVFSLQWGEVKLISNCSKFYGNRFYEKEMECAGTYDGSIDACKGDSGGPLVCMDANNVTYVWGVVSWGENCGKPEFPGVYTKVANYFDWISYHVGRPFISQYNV
Method: (§1) FIG. 11 Effect of Tween 20, Triton X-100 and Guanidine on BAM Activity. The effect of Tween 20, Triton X-100, and Guanidine on the activity of BAM was tested in the cofactor assay, where 1 μg/mL of CFI and 10 μM BAM was incubated at 37° C. for 40 min in the presence of the treating agents, then 80 μg/mL CFH and 80 μg/mL C3b was added and the reactions were lasted for 1 hr 20 min at 37° C. The iC3b concentration in the reaction was then measured using the ELISA method.
(§2) As shown in Section 3.10, mouse isotype control IgGs, especially mIgG2b, caused significant background in terms of increasing CFI bioactivity by potential interaction with BAM at the level of the hinge. To reduce such an effect, multiple agents such as Tween 20, Triton X-100, Guanidine and human serum albumin were tested in the cofactor assays to see if they will interfere with CFI bioactivity or BAM activity first. […] However, the effect didn't seem to be differential (FIG. 11). Taken together, none of the agents tested so far could resolve the IgG BAM binding issue. Lastly, another strategy was tested by reversing the order of addition of the reagents. Normally, BAM and anti-BAM antibody were incubated first, then CFI was added to the mixture, CFH and C3b was added last. […]

BAM = target: T2, BAM (Homo sapiens, UniProt P05067); assay: Effect of treating agents on BAM inhibitory activity in cofactor assay; type: biochemical; settings: 1 μg/mL CFI, 10 μM BAM, 37° C. 40 min with agent; then 80 μg/mL CFH and C3b
T2 construct: Beta amyloid recombinant peptide (1-42) (Ultra Pure, TFA Form) was purchased from Covance; purchased Covance
Method: as §1, §2

CFI [2] = assay: CFI bioactivity in plasma samples from Alzheimer's disease patients treated with Compound A; type: in vivo, human; settings: 6 mg/kg intravenously
Method: FIG. 15. CFI bioactivity in samples from Alzheimer's disease patients treated with anti-BAM (Compound A).
3.14. Providing Evidence that an Anti-BAM Antibody can Modulate CFI Bioactivity in Alzheimer's Patients. Finally, a set of human samples from Alzheimer disease patients treated with Compound A were evaluated for CFI bioactivity in a single assay. The assay conditions follow: • 80 μg/ml CFH and C3b. • 0.01-25 nL of plasma (half-log dilutions). • Incubation 2 hours. • Measurement of iC3b via ELISA. • Samples from one patient were run in a single assay. • Each assay was run in singlets. • To control inter-assay variability a common plasma sample was run in each assay.

T2 sequence (P05067 672-713 limits assumed): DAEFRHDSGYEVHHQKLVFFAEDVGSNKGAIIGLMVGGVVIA

effect on CFI bioactivity (in words) (CFI [1]): didn't affect CFI bioactivity
Molecule: Triton X-100
effect on inhibitory activity of BAM (in words) (BAM): abolished the inhibitory activity of BAM completely

effect on CFI bioactivity (in words) (CFI [1]): significantly reduced | effect on inhibitory activity of BAM (in words) (BAM): significantly reduced
Molecule: N=C(N)N [Guanidine]

B1: Compound A: anti-BAM antibody comprising a heavy chain of SEQ ID NO: 10 and a light chain of SEQ ID NO: 11 (antibody)
heavy: EVQLVESGGGLVQPGGSLRLSCAVSGFTFSDNGMAWVRQAPGKGLEWVSFISNLAYSIDYADTVTGRFTISRDNAKNSLYLQMNSLRAEDTAVYYCVSGTWFAYWGQGTLVTVSSASTKGPSVFPLAPSSKSTSGGTAALGCLVKDYFPEPVTVSWNSGALTSGVHTFPAVLQSSGLYSLSSVVTVPSSSLGTQTYICNVNHKPSNTKVDKKVEPKSCDKTHTCPPCPAPELAGAPSVFLFPPKPKDTLMISRTPEVTCVWDVSHEDPEVKFNWYVDGVEVHNAKTKPREEQYNSTYRWSVLTVLHQDWLNGKEYKCKVSNKALPAPIEKTISKAKGQPREPQVYTLPPSRDELTKNQVSLTCLVKGFYPSDIAVEWESNGQPENNYKTTPPVLDSDGSFFLYSKLTVDKSRWQQGNVFSCSVMHEALHNHYTQKSLSLSPGK
light: DIVMTQSPLSLPVTPGEPASISCRVSQSLLHSNGYTYLHWYLQKPGQSPQLLIYKVSNRFSGVPDRFSGSGSGTDFTLKISRVEAEDVGVYYCSQTRHVPYTFGGGTKVEIKRTVAAPSVFIFPPSDEQLKSGTASVVCLLNNFYPREAKVQWKVDNALQSGNSQESVTEQDSKDSTYSLSSTLTLSKADYEKHKVYACEVTHQGLSSPVTKSFNRGEC
modifications: Mature H2 heavy chain amino acid sequence.; Mature Light chain amino acid sequence.
overall increase of CFI bioactivity (CFI [2]; after the second administration): 10% | overall increase of CFI bioactivity (CFI [2]; after the third administration): 28%
